Values of other authors as cited in patent US20250387420A1, “Prevention of Nausea and Vomiting from Antibody-Drug Conjugates and other Long-Acting Emetogenics” (Helsinn Healthcare SA, priority 2024, published 2025).

Experiments:
NK1 receptor = NK1 receptor (Homo sapiens, UniProt P25103)
[1] = 48 hours after a single 300 mg oral netupitant dose; Gilmore and Bernareggi 2019
[2] = test system: patients receiving cisplatin-based chemotherapy; conditions: 168 hours following highly emetogenic cisplatin-based therapy

Chain of NK1 receptor (P25103 whole entry): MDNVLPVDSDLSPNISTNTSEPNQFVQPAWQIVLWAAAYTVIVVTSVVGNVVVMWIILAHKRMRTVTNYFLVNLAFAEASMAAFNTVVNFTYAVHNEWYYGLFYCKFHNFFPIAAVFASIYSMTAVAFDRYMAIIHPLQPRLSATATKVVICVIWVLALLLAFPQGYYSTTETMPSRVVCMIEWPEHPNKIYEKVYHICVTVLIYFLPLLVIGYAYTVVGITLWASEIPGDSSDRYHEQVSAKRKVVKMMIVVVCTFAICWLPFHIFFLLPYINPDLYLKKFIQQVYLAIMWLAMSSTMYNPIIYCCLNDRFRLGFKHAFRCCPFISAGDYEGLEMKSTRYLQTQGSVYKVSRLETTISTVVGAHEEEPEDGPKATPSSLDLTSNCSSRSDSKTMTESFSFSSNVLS

SMILES	plasma concentration at which 90% receptor occupancy is achieved (NK1 receptor; Spinelli et al. 2013) [ng/mL]	plasma concentration [1]	comparative efficacy versus aprepitant [2]	NK1 receptor occupancy rates necessary for efficacy (NK1 receptor; Bergstrom et al. 2004) [%]
Cc1ccccc1-c1cc(N2CCN(C)CC2)ncc1N(C)C(=O)C(C)(C)c1cc(C(F)(F)F)cc(C(F)(F)F)c1 [netupitant]	225	below 100 ng/mL	favorable comparative efficacy to aprepitant	–
C[C@@H](O[C@H]1OCCN(Cc2n[nH]c(=O)[nH]2)[C@H]1c1ccc(F)cc1)c1cc(C(F)(F)F)cc(C(F)(F)F)c1 [aprepitant]	–	–	–	> 90
